These results are taken from publication PMC9308172 (Journal of medicinal chemistry, 2017).

SMILES strings stand for the structures.

For one assay, the system named is A/WSN/33-M2-N31S. The format is cell-based, Influenza virus A/WSN/33 (H1N1). The conditions noted are these: read-out: IC50 A/WSN/33-M2-N31S.
Regarding `CCC1(N)C2CC3CC(C2)CC1C3` (stereo not shown) [Compound 4], the IC50 is 340 ± 260 nM.

Take `NC12CC3CC(CC(C3)C1)C2` [Compound 1, Amantadine, reference compound]: the IC50 was 270 ± 160 nM.

With `C1CNC2(C1)C1CC3CC(C1)CC2C3` (stereo not shown) [Compound 6], the IC50 was determined as 340 ± 80 nM.

For `NC1(C23CC4CC(CC(C4)C2)C3)CCCC1` [Compound 9], the IC50 is 4340 ± 2940 nM.

`CCCC1(N)C2CC3CC(C2)CC1C3` (stereo not shown) [Compound 5]: the IC50 was found to be 340 ± 100 nM.

Regarding `CN1CCCC12C1CC3CC(C1)CC2C3` (stereo not shown) [Compound 7], the IC50 was found to be 900 ± 290 nM.

With `CC12CC3CC(CC(C3)C13CCCN3)C2` (stereo not shown) [Compound 8, 1′-Methylspiro[pyrrolidine-2,2′-adamantane]], the IC50 was 6120 ± 2590 nM.

On to `NC1C2CC3CC(C2)CC1C3` (stereo not shown) [Compound 2], for which the IC50 is 420 ± 460 nM.

Take `CC1(N)C2CC3CC(C2)CC1C3` (stereo not shown) [Compound 3]: the IC50 came out at 330 ± 100 nM.

The test system of the next assay is A/California/07/2009 (H1N1) M2: N31. The note with it: cited from earlier work.
Regarding `CCCC1(N)C2CC3CC(C2)CC1C3` (stereo not shown) [Compound 5], the “blockage of full-length S31N M2 protein in electrophysiology (EP) studies” value is reported as “no blockage”.
